SMILES strings stand for the structures. Where “and” joins values, the source holds several entries; their conditions need not be identical. Equal entries are not always repeated. Residues, ends and D or L forms follow the SMILES beside them. *: point of attachment. Cbz = O=C(OCc1ccccc1)*

The test system of assay [1] is SH-SY5Y cells. In words: Quantitative peptidomics (TMAB isotopic labels, LC-MS/MS) of inhibitor-treated SH-SY5Y cells. The class given is cell-based, human. As for the experimental part: (§1) HEK293T and SH-SY5Y cells were grown to 80–90% confluence in DMEM and RPMI supplemented with 10% fetal bovine serum and penicillin/streptomycin. A single plate of cells (150 mm×25 mm) was used for each group. At the start of the experiment, media were removed from the plates and cells were washed with DPBS (138 mM NaCl, 8.06 mM Na2HPO4, 2.67 mM KCl, 1.47 mM KH2PO4, 0.9 mM CaCl2 and 0.49 mM MgCl2). This was followed by addition of serum-free media containing the proteasome or aminopeptidase inhibitors, or 0.05% DMSO as a control for the inhibitors that were soluble in DMSO. Each experiment consisted of two control groups and two or three replicate groups of cells treated with one of the inhibitors. The cells were incubated at 37°C for 20 minutes, following which media containing the inhibitor was removed, cells were washed with DPBS, detached from the plate by scraping into DPBS (without trypsin), and centrifuged at 800×g for 5 min. The wash buffer was supplemented with the appropriate inhibitor at the same concentration as used for the treatment, thereby ensuring that the changes induced in peptide levels were not reversed during harvesting of cells due to possible dissociation of the reversible inhibitors. The wash time (including centrifugation) was 15 minutes, for a total treatment time of 35 minutes. After centrifugation, the cell pellet was resuspended in 1 ml of 80°C water and incubated in an 80°C water bath for 20 minutes to inactivate proteases. The mixture was again centrifuged (13,000×g, 30 min, 4°C) and was stored at −80°C overnight. For peptide extraction, the samples were thawed and centrifuged again. The lysate was subsequently cooled on ice and acidified with HCl to a final concentration of 10 mM. After 15 min incubation on ice, the lysate was centrifuged at 13,000×g for 30 min at 4°C. To the supernatant, 250 µL of dibasic sodium phosphate (0.4 M, pH 9.5) was added and the mixture was stored at −80°C until labeling.
(§2) The labeling protocol has been earlier described in detail. Each group within an experiment (control/treated) was labeled with a different isotopic tag. The TMAB-NHS labels were dissolved in DMSO to a concentration of 400 µg/µL and 15 mg of label was used per 150 mm plate of cells. […] At the beginning, the pH of the peptide extract was adjusted to 9.5 with 1 M NaOH. Labeling was performed over 8 rounds; 4.69 µL of the label was added to the extract every 20 min. The pH was measured between each round and if necessary, brought back to 9.5 for the first five rounds. For rounds 6–8, the pH was not adjusted after the addition of the TMAB-NHS reagent. After the final round of label addition, the pH was adjusted to 9.5 again and the extracts were incubated at room temperature for 90 min. Thereafter, 30 µL of 2.5 M glycine was added to quench any unreacted label. Following 40 min incubation at room temperature, the labeled extracts for a single experiment were pooled and filtered through Amicon Ultracel-10 K units. It is important to ensure that only N-terminal amines and lysine side-chain amines of peptides are TMAB-labeled and not tyrosines. To hydrolyze any labeled tyrosine, 30 µL of a 2 M solution of hydroxylamine hydrochloride (pH 3.7) was added over three rounds to the pooled and filtered sample. The pH was measured after the addition of hydroxylamine and adjusted to 9.0 with 1 M NaOH. The samples were desalted through PepClean C-18 spin columns (Thermo Scientific, Rockford, IL, USA) by following manufacturer’s instructions. Peptides were eluted using 160 µL of 0.5% TFA and 70% acetonitrile, frozen at −80°C and then lyophilized in a vacuum centrifuge and stored at −80°C until analysis by mass spectrometry.
(§3) The LC-MS/MS experiments were performed on a Synapt G2 mass spectrometer coupled to a NanoAcquity capillary liquid chromatography system (Waters Co., Milford, MA, USA).

The test system of assay [2] is HEK293T cells. The assay is described as follows: Quantitative peptidomics (TMAB isotopic labels, LC-MS/MS) of inhibitor-treated HEK293T cells. Format: cell-based, human. The following applies: for change in levels of intracellular peptides (peptidome): HEK293T cells, 35 min, 2.5 µM MG132, 1 µM other inhibitors. As for the experimental part:
as §1, §2, §3

As for `CC(=O)N[C@@H](CSC(=O)[C@]1([C@@H](O)C(C)C)NC(=O)[C@H](C)[C@@H]1O)C(=O)O` [Lactacystin], in assay [1] (1 uM, 35', SH-SY5Y), the “Relative Levels of peptide ADKVPKTAENFRAL (PPIA)” value is recorded as < 0.20; the “Relative Levels of peptide Ac-AAPVDLELKKAFTEL (PFDN1)” value (shortened to “Relative Levels … (PFDN1)”) is reported as < 0.20; the “Relative Levels of peptide Ac-ASKRALVIL (PARK7)” value is 0.25 and < 0.20 and 0.21; the “Relative Levels of peptide Ac-ASKRALVILA (PARK7)” value was 0.52 and 0.32 and 0.42. Also, in assay [1] (1 uM, 35', SH-SY5Y), the “Relative Levels of peptide Ac-MDTSRVQPIKL (RPS28)” value is 0.47 and 0.49 and 0.51; the “Relative Levels of peptide Ac-SSEEGKLFVGGLNF (RBM3)” value (shortened to “Relative Levels … (RBM3)”) was 0.55 and 0.38 and 0.49; the “Relative Levels of peptide Ac-SYGRPPPDVEGMTSLKVDNL (SRSF2)” value (“Relative Levels … (SRSF2)” below) is 0.63 and 0.36 and 0.45; the “Relative Levels of peptide GAIRDIDL (SRSF1)” value (“Relative Levels … (SRSF1)” for short) is listed as < 0.20. Further, the “Relative Levels of peptide KHTGPGILSM (PPIA)” value in assay [1] (1 uM, 35', SH-SY5Y) was 0.26 and 0.24 and 0.25.

For `CC(=O)N[C@@H](CSC(=O)[C@]1([C@@H](O)C(C)C)NC(=O)[C@H](C)[C@@H]1O)C(=O)O` [Lactacys], in assay [2] (1 uM, 35', HEK), the “Relative Levels of peptide AKADGIVSKNF (RPS21)” value was 0.16 and 0.15; the “Relative Levels of peptide Ac-ASKRALVIL (PARK7)” value is < 0.20 and 0.26; the “Relative Levels of peptide Ac-ASKRALVILA (PARK7)” value was 0.29 and 0.31; the “Relative Levels of peptide Ac-MDTSRVQPIKL (RPS28)” value is 0.31 and 0.28. Also, in assay [2] (1 uM, 35', HEK), the “Relative Levels of peptide Ac-MDTSRVQPIKLAR (RPS28)” value was 0.52 and 0.70; the “Relative Levels … (RBM3)” value was 0.39 and 0.30; the “Relative Levels … (SRSF2)” value is 0.40 and 0.50; the “Relative Levels … (SRSF1)” value is on record as < 0.20. In assay [2] (1 uM, 35', HEK), the “Relative Levels of peptide GFGDLKSPAGLQVL (EEF1B2)” value (from here on “Relative Levels … (EEF1B2)”) is 0.19 and 0.14; the “Relative Levels of peptide GVQVETISPGDGRTFPKRGQT (FKBP1A)” value was 0.31 and 0.26; the “Relative Levels of peptide KHTGPGILSM (PPIA)” value was 0.25 and 0.22.

With `CC[C@H](C)[C@H](NC(=O)[C@H]([C@@H](C)CC)N(C)C(C)=O)C(=O)N[C@H](C(=O)N[C@@H](CC(C)C)C(=O)[C@@]1(C)CO1)[C@@H](C)O` [Epox.], in assay [2] (0.2 uM, 1h, HEK), the “Relative Levels of peptide AAETVTKGGIMLPEKSQGKVLQA (HSPE1)” value is recorded as < 0.20, the “Relative Levels of peptide ADKVPKTAENFRAL (PPIA)” value was < 0.20, the “Relative Levels of peptide AGAAVDELGKVLTPTQV (PEBP1)” value is recorded as < 0.20 and the “Relative Levels of peptide AKADGIVSKNF (RPS21)” value is listed as < 0.20. In addition, in assay [2] (0.2 uM, 1h, HEK), the “Relative Levels of peptide APIKVGDAIPAVEVF (PRDX5)” value is < 0.20; the “Relative Levels of peptide APPTAYIDFARQK (TPI1)” value was 0.58 and 0.64; the “Relative Levels of peptide ASQPDVDGFLVGGASLKPEFVDIINA (TPI1)” value was < 0.20; the “Relative Levels of peptide ASQPDVDGFLVGGASLKPEFVDIINAKQ (TPI1)” value was 1.17 and 1.09. In assay [2] (0.2 uM, 1h, HEK), the “Relative Levels of peptide AVDGEPLGRVSF (PPIA)” value is on record as < 0.20, the “Relative Levels … (PFDN1)” value is on record as < 0.20, the “Relative Levels of peptide Ac-ANLERTFIAIKPDGV (NME2)” value is given as < 0.20 and the “Relative Levels of peptide Ac-ASKRALVIL (PARK7)” value is on record as < 0.20. Besides, in assay [2] (0.2 uM, 1h, HEK), the “Relative Levels of peptide Ac-ASKRALVILA (PARK7)” value was < 0.20, the “Relative Levels of peptide Ac-MDTSRVQPIKL (RPS28)” value is on record as < 0.20, the “Relative Levels of peptide Ac-MDTSRVQPIKLAR (RPS28)” value is reported as 0.95 and the “Relative Levels … (RBM3)” value is < 0.20. Further, in assay [2] (0.2 uM, 1h, HEK), the “Relative Levels … (SRSF2)” value is 0.23 and 0.32; the “Relative Levels of peptide Ac-[…] (COX6B1)” value was < 0.20; the “Relative Levels of peptide EDENFILKHTGPGILSM (PPIA)” value is < 0.20; the “Relative Levels … (SRSF1)” value is 0.29 and 0.33. In assay [2] (0.2 uM, 1h, HEK), the “Relative Levels … (EEF1B2)” value is given as < 0.20; the “Relative Levels of peptide GISTPEELGLDKV (COX5A)” value is < 0.20; the “Relative Levels of peptide GVQVETISPGDGRTFPKRGQT (FKBP1A)” value is 0.72 and 0.45; the “Relative Levels of peptide KHTGPGILSM (PPIA)” value is listed as < 0.20. Also, in assay [2] (0.2 uM, 1h, HEK), the “Relative Levels of peptide PGIVELPTLEEL (NDUFA8)” value is recorded as < 0.20; the “Relative Levels of peptide SAMTEEAAVAIKAMAK (EIF5A)” value is 0.36 and 0.21; the “Relative Levels of peptide SLGELIGTLNA (TPI1)” value was 0.29 and < 0.20; the “Relative Levels of peptide VNPTVFFDI (PPIA)” value is recorded as < 0.20. Also, in assay [2] (2 uM, 1h, HEK), the “Relative Levels of peptide AAETVTKGGIMLPEKSQGKVLQA (HSPE1)” value is listed as < 0.20, the “Relative Levels of peptide ADKVPKTAENFRAL (PPIA)” value is given as < 0.20, the “Relative Levels of peptide AGAAVDELGKVLTPTQV (PEBP1)” value is given as < 0.20 and the “Relative Levels of peptide AKADGIVSKNF (RPS21)” value was < 0.20. In addition, in assay [2] (2 uM, 1h, HEK), the “Relative Levels of peptide APIKVGDAIPAVEVF (PRDX5)” value was < 0.20, the “Relative Levels of peptide ASQPDVDGFLVGGASLKPEFVDIINA (TPI1)” value is < 0.20, the “Relative Levels of peptide ASQPDVDGFLVGGASLKPEFVDIINAKQ (TPI1)” value was < 0.20 and the “Relative Levels of peptide AVDGEPLGRVSF (PPIA)” value was < 0.20. Moreover, in assay [2] (2 uM, 1h, HEK), the “Relative Levels … (PFDN1)” value is < 0.20; the “Relative Levels of peptide Ac-AEEGIAAGGVMDVNTALQEVLKT (RPS12)” value was 0.61 and 0.42; the “Relative Levels of peptide Ac-ANLERTFIAIKPDGV (NME2)” value is listed as < 0.20; the “Relative Levels of peptide Ac-ASKRALVIL (PARK7)” value is < 0.20. In assay [2] (2 uM, 1h, HEK), the “Relative Levels of peptide Ac-ASKRALVILA (PARK7)” value is listed as < 0.20; the “Relative Levels of peptide Ac-MDTSRVQPIKL (RPS28)” value is on record as < 0.20; the “Relative Levels of peptide Ac-MDTSRVQPIKLAR (RPS28)” value was 0.64 and 0.94; the “Relative Levels of peptide Ac-MDTSRVQPIKLARVTKV (RPS28)” value is on record as < 0.20. Besides, in assay [2] (2 uM, 1h, HEK), the “Relative Levels … (RBM3)” value is < 0.20, the “Relative Levels … (SRSF2)” value is reported as < 0.20, the “Relative Levels of peptide EDENFILKHTGPGILSM (PPIA)” value is < 0.20 and the “Relative Levels of peptide GESDDSILRLAKADGIVSKNF (RPS21)” value is given as < 0.20. In assay [2] (2 uM, 1h, HEK), the “Relative Levels … (EEF1B2)” value is 0.54 and 0.68; the “Relative Levels of peptide GISTPEELGLDKV (COX5A)” value was 0.38 and 0.45; the “Relative Levels of peptide KHTGPGILSM (PPIA)” value was < 0.20; the “Relative Levels of peptide PGIVELPTLEEL (NDUFA8)” value is on record as < 0.20. Also, in assay [2] (2 uM, 1h, HEK), the “Relative Levels of peptide SAMTEEAAVAIKAMAK (EIF5A)” value was < 0.20; the “Relative Levels of peptide SLGELIGTLNA (TPI1)” value is 0.52 and 0.30; the “Relative Levels of peptide VNPTVFFDI (PPIA)” value is < 0.20.

As to `CC(C)C[C@@H](C=O)NC(=O)[C@H](CC(C)C)NC(=O)[C@H](CC(C)C)NC(=O)OCc1ccccc1` [MG132, reference compound] (Cbz-Leu-Leu-Leu-aldehyde), in assay [2], the “change in levels of intracellular peptides (peptidome)” value is recorded as “the majority of peptides was greatly decreased”.

Regarding `CC(C)C[C@H](NC(=O)[C@H](CCc1ccccc1)NC(=O)CN1CCOCC1)C(=O)N[C@@H](Cc1ccccc1)C(=O)N[C@@H](CC(C)C)C(=O)[C@@]1(C)CO1` [carfilzomib, reference compound], the “change in levels of intracellular peptides (peptidome)” value was “decreased the levels of many peptides but also elevated levels of a number of other peptides” in assay [2] and “decreased the levels of many peptides but also elevated levels of a number of other peptides” in assay [1] (SH-SY5Y cells, 35 min, 2.5 µM MG132, 1 µM other inhibitors).

Values taken from PMC4117522, “Proteasome Inhibitors Alter Levels of Intracellular Peptides in HEK293T and SH-SY5Y Cells” (PLoS ONE, 2014).
